Measurements published in ChEMBL document CHEMBL1139288, “A simple synthesis of four stereoisomers of roseoside and their inhibitory activity on leukotriene release from mice bone marrow-derived cultured mast cells” (2009).

Experiment: Inhibition of leukotriene release in ICR mouse BMCMC […] after 6 hrs by ELISA
Type: functional

SMILES	inhibition (INH)
CC1=CC(=O)CC(C)(C)[C@]1(O)/C=C/[C@@H](C)O[C@@H]1O[C@H](CO)[C@@H](O)[C@H](O)[C@H]1O	22.9%
CC1=CC(=O)CC(C)(C)[C@]1(O)/C=C/[C@H](C)O[C@@H]1O[C@H](CO)[C@@H](O)[C@H](O)[C@H]1O	36.7%
CC1=CC(=O)CC(C)(C)[C@@]1(O)/C=C/[C@@H](C)O[C@@H]1O[C@H](CO)[C@@H](O)[C@H](O)[C@H]1O [6S,9R-ROSEOSIDE]	67.4%
CC1=CC(=O)CC(C)(C)[C@@]1(O)/C=C/[C@H](C)O[C@@H]1O[C@H](CO)[C@@H](O)[C@H](O)[C@H]1O [6S,9S-ROSEOSIDE]	70.3%
